{"source": "patent US8853359B2", "about": "“Endokinin C/D-derived peptides” (University of Miyazaki, priority 2009, dated 2014)", "key": {"[1]": {"tested_on": "SP-induced thermal hyperalgesia", "assay": "SP-induced thermal hyperalgesia (withdrawal latency) after intrathecal pre-administration of peptide", "format": "in vivo, rat", "details": "10^-3M (10 nmol/10 μl) peptide intrathecal, FIG. 7", "excerpt": "In this test, the effects of intrathecal pre-administration with D-EKC/D (1), (2), and (3) on the induction of thermal hyperalgesia following intrathecal administration of SP were confirmed using as an index thermal hyperalgesia, which is one type of pain-related behavior. The effects can be evaluated based on withdrawal latency period, which is the time required for withdrawal response to take place after application of noxious thermal stimulation to plantar using infrared rays.\nIn Example 4, 10^−3M (10 nmol/10 μl) D-EKC/D (1), (2), or (3) was administered to intrathecally catheterized rats via catheters, intrathecal administration of 10^−6M (10 pmol/10 μl) SP was performed at 4 hours and at 8 hours after administration of D-EKC/D, the presence or the absence of hyperalgesia following intrathecal administration of SP was evaluated based on the time (latency period) required for withdrawal response to take place, the latency period following SP administration in rats pretreated with D-EKC/D and the latency period resulting from administration of SP alone were compared, and thus the effects of preadministration of D-EKC/D (1), (2), and (3) were evaluated."}, "[2]": {"tested_on": "substance P-induced scratching behavior", "assay": "substance P-induced scratching behavior after intrathecal pre-administration of test peptide", "format": "in vivo, rat", "details": "for number of scratching events induced by substance P, relative to control group (saline+SP = 100%): 10^-3M (10 nmol/10 μl) peptide intrathecal, 10^-3M SP 30 minutes after peptide; for number of scratching events induced by substance P, relative to control group (saline+SP = 100%) / number of scratching events induced by substance P, relative to control group: FIG. 1; for duration of suppressive effects on substance P-induced scratching behavior / number of scratching events induced by substance P, relative to control group: 10^-3M peptide intrathecal; for duration of suppressive effects on substance P-induced scratching behavior: 10^-3M SP", "method": "In Example 1, 10^−3M (10 nmol/10 μl) EKC/D or D-EKC/D (1), (2) or (3) was administered to intrathecally catheterized rats via catheters. After the predetermined time periods denoted on the horizontal axis in FIG. 1, the numbers of scratching events (scratching behavior) induced by intrathecal administration of 10^−3M (10 nmol/10 μl) substance P (hereafter, referred to as “SP”) were determined. Here, the expression “10^−3M (10 nmol/10 μl) EKC/D or D-EKC/D (1), (2), or (3) was administered” refers to a situation in which 10 μl in total of a solution (that is, 10^−3M solution) containing 10 nmol of EKC/D or D-EKC/D (1), (2), or (3) was all administered. The expression, “ . . . administration of 10^−3M substance P (10 nmol/10 μl)” refers to a situation in which 10 μl in total of a solution (that is, 10^−3M solution) containing 10 nmol of the substance was all administered. The same similarly applies below.\nMeanwhile, saline (10 μl) was intrathecally administered to intrathecally catheterized rats via catheters and then, after 30 minutes, 10^−3M SP (10 nmol/10 μl) was intrathecally administered to the rats. The number of the thus induced scratching events was determined to be the number of scratching events in the control group. The control group is denoted with saline-4-SP in FIG. 1.\nThe vertical axis of the graph in FIG. 1 indicates changes in the numbers of scratching events (represented by relative values) due to administration of 10^−3M EKC/D or D-EKC/D (1), (2), or (3) when the number of scratching events (of untreated rats in a control group) induced by intrathecal administration of 10^−3M substance P was determined to be 100%. Meanwhile, the horizontal axis indicates the intervals between the administration of EKC/D, D-EKC/D (1), (2), or (3) and 10^−3M substance P. […]\nThe test was conducted with procedures similar to those in Example 1, except for 4 hours of interval between the administration of each test peptide and the administration of substance P. The concentration of each test peptide and that of substance P for administration were determined to be 10^−3M (10 nmol/10 μl), similarly to Example 1. The number of scratching events in the control group was determined with procedures similar to those in Example 1, such that substance P was administered at 30 minutes after administration of saline (10 μl) and then the number was determined."}, "[3]": {"tested_on": "carrageenan-induced inflammation", "assay": "carrageenan-induced increase in paw size, EKC/D injected 1 hour after carrageenan", "format": "in vivo, rat", "method": "The vertical axis of the graph in FIG. 4 indicates increases (%) in paw size and the horizontal axis indicates the time after administration of saline (100 μl: saline) or EKC/D with “minutes,” thereby showing the time course changes of anti-inflammatory effects of EKC/D administration on carrageenan-induced inflammation. The paw size before carrageenan administration was determined to be 100%. Paw size was increased by about 50% (saline) as measured using a paw size meter at 1 hour after carrageenan injection. This state continued for about 60 minutes (saline). […] When 10^−3M EKC/D (100 nmol/100 μl) was injected, paw size had decreased to about 40% at 10 minutes after, to about 20% at 30 minutes after, and to about 40% at 50 minutes after injection."}, "[4]": {"tested_on": "carrageenan-induced thermal hyperalgesia", "assay": "carrageenan-induced thermal hyperalgesia (withdrawal latency), EKC/D injected 1 hour after carrageenan", "format": "in vivo, rat", "excerpt": "Intraplantar injection of carrageenan induces thermal hyperalgesia accompanying inflammation. To examine induction of thermal hyperalgesia, noxious thermal stimulation was applied to plantar using infrared rays. It can be said that thermal hyperalgesia takes place when the latency period of the withdrawal response becomes shorter than that for untreated rats. In FIG. 5, the vertical axis of the graph indicates the latency period in seconds and the horizontal axis of the graph indicates the time after injection of saline or EKC/D in minutes. The latency period in untreated rats (control) after noxious thermal stimulation was about 21 seconds. When saline (100 μl) was injected at 1 hour after carrageenan injection, the latency period was about 13 seconds. […] This state was sustained for 60 minutes (saline). […] When 10^−5M (1 nmol/100 μl) and 10^−6M ([…]) EKC/D were injected, the latency period before rats responded to noxious thermal stimulation was about 17 seconds, which was longer than that in the case of treatment with saline (EKC/D10^−5 M and EKC/D 10^−6 M)."}, "[5]": {"tested_on": "scratching behavior and thermal hyperalgesia induced by SP or EKA/B", "details": "Non-patent document 3, cited from earlier work"}, "[6]": {"details": "10^-6M SP 4 hours later, saline about 20 seconds, SP about 13 seconds"}}, "note": "Ends that are not written are not given here.", "data": [{"substance": "Ala-Tyr-Gln-Leu-Glu-His-Thr-DTrp-Gln-DTrp-Leu-Leu-NH2 (AYQLEHTXQXLL; HELM PEPTIDE1{A.Y.Q.L.E.H.T.[dW].Q.[dW].L.L.[am]}$$$$V2.0; N-terminus assumed; SMILES CC(C)C[C@H](NC(=O)[C@H](CC(C)C)NC(=O)[C@@H](Cc1c[nH]c2ccccc12)NC(=O)[C@H](CCC(N)=O)NC(=O)[C@@H](Cc1c[nH]c2ccccc12)NC(=O)[C@@H](NC(=O)[C@H](Cc1c[nH]cn1)NC(=O)[C@H](CCC(=O)O)NC(=O)[C@H](CC(C)C)NC(=O)[C@H](CCC(N)=O)NC(=O)[C@H](Cc1ccc(O)cc1)NC(=O)[C@H](C)N)[C@@H](C)O)C(N)=O) [D-EKC/D (1)]", "values": [{"measurement": "effect on latency period following administration of SP", "setting": "[1]; [6]", "value": "significantly attenuated"}, {"measurement": "effect on latency period following administration of SP", "setting": "[1]; 10^-6M SP 8 hours later", "value": "differs from D-EKC/D (2) and (3) in duration of effectiveness"}, {"measurement": "number of scratching events induced by substance P, relative to control group (saline+SP = 100%)", "setting": "[2]", "value": "about 40%"}, {"measurement": "duration of suppressive effects on substance P-induced scratching behavior", "setting": "[2]", "value": "almost the same as that of the EKC/D consisting only of L-type amino acids"}, {"measurement": "number of scratching events induced by substance P, relative to control group", "setting": "[2]; SP 1 hour after peptide", "value": "disappeared"}]}, {"substance": "Ala-Tyr-Gln-Leu-Glu-His-Thr-DTrp-Gln-Gly-Leu-Leu-NH2 (AYQLEHTXQGLL; HELM PEPTIDE1{A.Y.Q.L.E.H.T.[dW].Q.G.L.L.[am]}$$$$V2.0; N-terminus assumed; SMILES CC(C)C[C@H](NC(=O)[C@H](CC(C)C)NC(=O)CNC(=O)[C@H](CCC(N)=O)NC(=O)[C@@H](Cc1c[nH]c2ccccc12)NC(=O)[C@@H](NC(=O)[C@H](Cc1c[nH]cn1)NC(=O)[C@H](CCC(=O)O)NC(=O)[C@H](CC(C)C)NC(=O)[C@H](CCC(N)=O)NC(=O)[C@H](Cc1ccc(O)cc1)NC(=O)[C@H](C)N)[C@@H](C)O)C(N)=O) [D-EKC/D (2)]", "values": [{"measurement": "effect on latency period following administration of SP", "setting": "[1]; [6]", "value": "significantly attenuated"}, {"measurement": "effect on latency period following administration of SP", "setting": "[1]; 10^-6M SP 8 hours later", "value": "significant attenuation"}, {"measurement": "number of scratching events induced by substance P, relative to control group (saline+SP = 100%)", "setting": "[2]", "value": "about 20%"}, {"measurement": "number of scratching events induced by substance P, relative to control group", "setting": "[2]; SP 1 hour after peptide", "value": "slight tendency of restoration"}, {"measurement": "number of scratching events induced by substance P, relative to control group", "setting": "[2]; administration interval of 45 minutes", "value": "almost the same effects were exhibited"}]}, {"substance": "Ala-Tyr-Gln-Leu-Glu-His-Thr-Phe-Gln-Gly-Leu-Leu-NH2 (AYQLEHTFQGLL-NH2; listed as Homo sapiens) [EKC/D]", "values": [{"measurement": "increases in paw size accompanying inflammation due to carrageenan, overall", "setting": "[3]; 10^-3M EKC/D (100 nmol/100 μl)", "value": "significantly suppressed"}, {"measurement": "increase in paw size", "setting": "[3]; 10^-3M EKC/D (100 nmol/100 μl), 10 minutes after injection, saline about 50%", "value": "about 40%"}, {"measurement": "increase in paw size", "setting": "[3]; 10^-3M EKC/D (100 nmol/100 μl), 30 minutes after injection", "value": "about 20%"}, {"measurement": "increase in paw size", "setting": "[3]; 10^-3M EKC/D (100 nmol/100 μl), 50 minutes after injection", "value": "about 40%"}, {"measurement": "anti-inflammatory effects, overall", "setting": "[3]; 10^-4M EKC/D (10 nmol/100 μl)", "value": "weak anti-inflammatory effects"}, {"measurement": "increase in paw size", "setting": "[3]; 10^-4M EKC/D (10 nmol/100 μl), 30 minutes after injection", "value": 40, "unit": "%"}, {"measurement": "paw size", "setting": "[3]; 10^-4M EKC/D (10 nmol/100 μl), 60 minutes after injection", "value": "almost at a normal level"}, {"measurement": "effect on paw size", "setting": "[3]; 10^-5M EKC/D (1 nmol/100 μl)", "value": "No clear effects"}, {"measurement": "effect on paw size", "setting": "[3]; 10^-6M EKC/D (100 pmol/100 μl)", "value": "No clear effects"}, {"measurement": "latency period following noxious thermal stimulation", "setting": "[4]; 10^-3M EKC/D (100 nmol/100 μl), untreated about 21 seconds, saline about 13 seconds", "value": "almost the same as that in the case of untreated rats"}, {"measurement": "latency period following noxious thermal stimulation", "setting": "[4]; 10^-4M EKC/D (10 nmol/100 μl)", "value": "almost the same tendency as that in the case of 10^−3M EKC/D"}, {"measurement": "latency period following noxious thermal stimulation", "setting": "[4]; 10^-5M EKC/D (1 nmol/100 μl)", "value": "about 17 seconds"}, {"measurement": "latency period following noxious thermal stimulation", "setting": "[4]; 10^-6M EKC/D (100 μmol/100 μl)", "value": "about 17 seconds"}, {"measurement": "latency period following noxious thermal stimulation", "setting": "[4]; 10^-7M EKC/D (10 pmol/100 μl)", "value": "almost the same as that in the case of saline"}, {"measurement": "SP-induced hyperalgesia", "setting": "[5]; 5 minutes after administration of EKC/D", "value": "suppressed"}, {"measurement": "induction of scratching behavior or thermal hyperalgesia by the peptide itself", "setting": "[5]; intrathecal administration to a rat", "value": "does not induce"}, {"measurement": "scratching behavior and thermal hyperalgesia induced by administration of SP or EKA/B", "setting": "[5]; pre-administration of the peptide, intrathecal", "value": "suppresses"}, {"measurement": "number of scratching events induced by substance P, relative to control group (saline+SP = 100%)", "setting": "[2]", "value": "about 60%"}, {"measurement": "duration of suppressive effects on substance P-induced scratching behavior", "setting": "[2]", "value": "≤ 1", "unit": "h"}, {"measurement": "number of scratching events induced by substance P, relative to control group", "setting": "[2]; SP 1 hour after peptide", "value": "restored 1 hour later to the same degree as that for the control group"}]}]}
